# Laboratory results from PubChem BioAssay AID208 (DTP/NCI, 2004).
# Where “and” joins values, the source holds several entries; their conditions need not be identical. Identical values can stand only once. Results filed as inconclusive are left out.
# System: HT29 intrarenal xenograft, nude mice, tumor weight change
# Test: NCI In Vivo Anticancer Drug Screen. Data for tumor model HT29;CX-1 Human Adenocarcinoma (MER+) (intrarenal inoculation) in NU/NU BALB/C (nude) mice
# Conditions: endpoint: mean tumor weight change, higher = larger tumour
# Description: The antitumor activity of compounds was measured in mice bearing transplantable tumors. Survival or tumor size were measured and the results are expressed as the measurement made in the treated group (T) divided by the measurement made in the vehicle treated control group (C). The tumor model used in this assay is HT29;CX-1 Human Adenocarcinoma (MER+) (intrarenal inoculation) in NU/NU BALB/C (nude) mice
# [1] = dose: 75.0 mg/kg/injection, schedule: Q04DX004 (sc), vehicle: saline
smiles,measurement,setting,value
COc1ccc2c(ccc3oc([N+](=O)[O-])cc32)c1,T/C,"dose: 150.0 mg/kg/injection, schedule: Q04DX004 (sc), vehicle: Klucel (hydroxypropylcellulose) (HPC)",113 % of control
same,T/C,"dose: 600.0 mg/kg/injection, schedule: Q04DX004 (sc), vehicle: Klucel (hydroxypropylcellulose) (HPC)",76 % of control
N=c1c(C(=O)OCc2ccccc2)ncc(CCl)n1O,T/C,"dose: 150.0 mg/kg/injection, schedule: Q04DX004 (sc), vehicle: saline with Tween-80",67 % of control
same,T/C,"dose: 300.0 mg/kg/injection, schedule: Q04DX004 (sc), vehicle: saline with Tween-80",58 % of control
same,T/C,"dose: 600.0 mg/kg/injection, schedule: Q04DX004 (sc), vehicle: saline with Tween-80",49 % of control
same,T/C,"dose: 1200.0 mg/kg/injection, schedule: Q04DX004 (sc), vehicle: saline with Tween-80",75 % of control
CC(=O)OCC(=O)[C@@]12OC(C)(C)O[C@@H]1C[C@H]1[C@@H]3CC(C=O)=C4C=C(OCCCl)CC[C@]4(C)[C@@]3(F)[C@@H](O)C[C@@]12C,T/C,"dose: 50.0 mg/kg/injection, schedule: Q04DX004 (sc), vehicle: Klucel (hydroxypropylcellulose) (HPC)",101 % of control
same,T/C,"dose: 100.0 mg/kg/injection, schedule: Q04DX004 (sc), vehicle: Klucel (hydroxypropylcellulose) (HPC)",23 % of control
COc1cccc2c1C(=O)c1c(O)c3c(c(O)c1C2=O)C[C@@](O)(C(=O)CO)C[C@@H]3OC1CC(N2CCOCC2C#N)C(O)C(C)O1 (stereo partly specified),T/C,"dose: 15.0 micrograms/kg/injection, schedule: Q04DX004 (ip), vehicle: saline",114 % of control
same,T/C,"dose: 30.0 micrograms/kg/injection, schedule: Q04DX004 (ip), vehicle: saline",110 % of control
same,T/C,"dose: 60.0 micrograms/kg/injection, schedule: Q04DX004 (ip), vehicle: saline",78 % of control
COc1cc(O)c2c(O)c3c(c4c2c1[C@]1(C4)C(C)=CCCC1(C)C)[C@H](O)[C@@]1(O)CC(=O)C(C(N)=O)=C(O)[C@@]1(O)C3=O,T/C,"dose: 9.4 mg/kg/injection, schedule: Q04DX004 (ip), vehicle: saline with Tween-80",59 % of control
same,T/C,"dose: 18.8 mg/kg/injection, schedule: Q04DX004 (ip), vehicle: saline with Tween-80",87 % of control
same,T/C,"dose: 37.5 mg/kg/injection, schedule: Q04DX004 (ip), vehicle: saline with Tween-80",101 % of control
C[C@@H]1C[C@@H]([C@H](O)CC2CC(=O)NC(=O)C2)C(=O)[C@@H](C)C1,T/C,[1],43 % of control
O=P(O)(NCCCl)NCCCl,T/C,"dose: 37.5 mg/kg/injection, schedule: Q04DX004 (sc), vehicle: saline",54 % of control and 61 % of control
same,T/C,[1],71 % of control and 80 % of control
CN(C)/N=N/c1nc[nH]c1C(N)=O,T/C,"dose: 100.0 mg/kg/injection, schedule: Q04DX004 (ip), vehicle: saline",157 % of control
same,T/C,"dose: 150.0 mg/kg/injection, schedule: Q04DX004 (ip), vehicle: saline",75 % of control
N=C(N)c1ccc(/C=C/c2ccc(C(=N)N)cc2O)cc1,T/C,"dose: 75.0 mg/kg/injection, schedule: Q04DX004 (sc), vehicle: water",101 % of control
same,T/C,"dose: 150.0 mg/kg/injection, schedule: Q04DX004 (sc), vehicle: water",86 % of control
